Experimental data published in patent US8026370B2, “Carboxylic acid derivative containing thiazole ring and pharmaceutical use thereof” (Mitsubishi Tanabe Pharma Corporation, priority 2004, dated 2011).
Read-outs that look alike come from different tables or passages of the source.

Experiments:
[1] = biological target: T1, Human Peroxisome Proliferator-Activated Receptor (PPAR)α (Homo sapiens, UniProt Q07869); experiment: Transcription activation test for human PPARα (GAL4-hPPARαLBD luciferase reporter in CV-1 cells); assay type: cell-based; conditions: firefly luciferase reporter, 24 hr with test compound in serum free medium, read-out: transactivation action (EC50, nmol/l)
T1 construct: expressed in transfected cells; host or cells: CV-1 cells (CCL-70)
T1 sequence (Q07869 239-466 limits assumed): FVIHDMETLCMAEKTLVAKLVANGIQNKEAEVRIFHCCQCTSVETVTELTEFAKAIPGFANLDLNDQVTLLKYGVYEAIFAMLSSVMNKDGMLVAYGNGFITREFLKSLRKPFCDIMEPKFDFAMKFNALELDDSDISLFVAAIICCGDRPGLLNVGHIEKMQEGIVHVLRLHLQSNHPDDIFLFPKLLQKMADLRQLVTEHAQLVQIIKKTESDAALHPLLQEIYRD
Text: Transcription Activation Test for Human Peroxisome Proliferator-Activated Receptor (PPAR)α
CV-1 cells (CCL-70, manufactured by Dainippon Pharma Co., Ltd.) cultured in Dulbecco's Modified Eagle Medium (DMEM) containing 10% fetal bovine serum (FBS) were transfected, using Lipofectamine 2000 (manufactured by Invitrogen), with pBIND vector (manufactured by Promega) a fusion that expresses protein (GAL4-hPPARαLBD, manufactured based on Diabetes 47: 1841-1847, 1998) of a DNA binding region of a yeast transcription factor (GAL4) and a human PPARα ligand binding region, and an internal standard renilla luciferase, and GAL4 responsive TK vector (manufactured by Promega) that expresses reporter firefly luciferase. 24 hr later, the medium was changed to a serum free medium containing a test compound, and the luciferase activity after 24 hr was measured.

normal rats = experiment: Blood triglyceride (TG)-lowering action in normal rats; assay type: in vivo; conditions: 0.3 mg/kg p.o. once a day for 4 days, normal male SD rats, non-fasting, blood TG vs vehicle group; for inhibition in vivo at 0.3 mg/kg: Rattus norvegicus, po, 96 h, read-out: hypotriglyceridemic rate (%, 0.3 mg/kg, p.o.)
Description: 1) Blood Triglyceride (TG)-Lowering Action in Normal Rats
7 to 9-week-old male SD rats (manufactured by SEAC Yoshitomi, Ltd.) were used for the test. A test compound and a control compound (GW-9578: J. Med. Chem. 1999, 42, 3785-3788) were dissolved or suspended in 1% ethanol, 0.05% Tween80 (final concentration), and 0.5% hydroxypropylmethyl cellulose (HPMC) was added to adjust to a given concentration. The prepared solution was orally administered once a day for 4 days. After administration for 4 days, blood samples were collected from the jugular vein under non-fasting condition and blood TG was measured by an enzyme method. The lowering rate was calculated by determining the rate of a value obtained by subtracting the average blood TG of a drug administration group from the average blood TG of a vehicle administration group, to the average blood TG of the vehicle administration group.

[2] = tested on: high cholesterol diet-treated rat; experiment: Influence on serum lipid of high cholesterol diet-treated rat; assay type: in vivo, male SD rats; conditions: 0.3 mg/kg p.o. once a day for 5 days, high cholesterol diet rats, non-fasting; for inhibition in vivo at 0.3 mg/kg: Rattus norvegicus, po, 120 h
Description: 2) Influence on Serum Lipid of High Cholesterol Diet-Treated Rat
8-week-old male SD rats (manufactured by SEAC Yoshitomi, Ltd.) were raised on a standard diet CE-2 (manufactured by Japan Clea, Inc.) added with 1% cholesterol, 2% olive oil and 0.2% cholic acid, from one week before test compound administration to the last day of the administration. A test compound and a control compound (GW-9578) were dissolved or suspended in 1% ethanol, 0.05% Tween80 (final concentration), and 0.5% hydroxypropylmethyl cellulose (HPMC) was added to adjust to a given concentration. The prepared solution was orally administered once a day for 5 days. After administration for 5 days, blood samples were collected from the jugular vein under non-fasting condition and blood lipid was measured by an enzyme method. The lowering rate was calculated by determining the rate of a value obtained by subtracting the average blood TG (or average blood TC) of a drug administration group from the average blood triglyceride (TG) (or average blood total cholesterol (TC)) of a vehicle administration group, to the average blood TG (or average blood TC) of the vehicle administration group.

[3] = blood total cholesterol vs vehicle group, read-out: lowering rate (%, 0.3 mg/kg, p.o.) TC
[4] = blood triglyceride vs vehicle group, read-out: lowering rate (%, 0.3 mg/kg, p.o.) TG

SMILES	EC50 [1] [nmol/L]	inhibition in vivo at 0.3 mg/kg (normal rats) [%]	inhibition in vivo at 0.3 mg/kg [2, 3] [%]	inhibition in vivo at 0.3 mg/kg [2, 4] [%]	hypotriglyceridemic rate (%, 0.3 mg/kg, p.o.) (normal rats)	lowering rate (%, 0.3 mg/kg, p.o.) TC ([2]; blood total cholesterol vs vehicle group)	lowering rate (%, 0.3 mg/kg, p.o.) TG ([2]; blood triglyceride vs vehicle group)
CC(C)(Sc1nc(CCNc2ccc(-c3ccc(C(F)(F)F)cc3F)nn2)cs1)C(=O)O [Example 224, 2-({4-[2-({6-[2-fluoro-4-(trifluoromethyl)phenyl]pyridazin-3-yl}amino)ethyl]-1,3-thiazol-2-yl}thio)-2-methylpropionic acid]	29.7	63	31	57			
CC(C)(Sc1nc(CCOc2ccc(-c3ccc(F)cc3)cc2)cs1)C(=O)O [Example 34, 2-[(4-{2-[(4′-fluorobiphenyl-4-yl)oxy]ethyl}-1,3-thiazol-2-yl)thio]-2-methylpropionic acid]	10.4	62	43	45			
CCc1cnc(N(CCc2csc(SC(C)(C)C(=O)O)n2)Cc2cnn(-c3ccccc3)c2)nc1 [Example 326, 2-{[4-(2-{(5-ethylpyrimidin-2-yl)[(1-phenyl-1H-pyrazol-4-yl)methyl]amino}ethyl)-1,3-thiazol-2-yl]thio}-2-methylpropionic acid]	38.8	59	31	43			
CCc1cnc(N(C/C=C/c2ccccc2)CCc2csc(SC(C)(C)C(=O)O)n2)nc1 [Example 346, 2-{[4-(2-{(5-ethylpyrimidin-2-yl)[(2E)-3-phenylprop-2-en-1-yl]amino}ethyl)-1,3-thiazol-2-yl]thio}-2-methylpropionic acid]	13.6	63	31	47			
CCCCCCCN(CCc1csc(SC(C)(C)C(=O)O)n1)c1ncc(CC)cn1 [Example 265, 2-[(4-{2-[(5-ethylpyrimidin-2-yl)(heptyl)amino]ethyl}-1,3-thiazol-2-yl)thio]-2-methylpropionic acid]	7	69	31	63			
CC(C)(Sc1nc(CCNc2cnc(-c3ccc(Cl)cc3)cn2)cs1)C(=O)O [Example 226, 2-{[4-(2-{[5-(4-chlorophenyl)pyrazin-2-yl]amino}ethyl)-1,3-thiazol-2-yl]thio}-2-methylpropionic acid]	16.5	64	38	56			
CC(C)(Sc1nc(CCNc2ncc(-c3ccc(OC(F)(F)F)cc3)cn2)cs1)C(=O)O [Example 162, 2-methyl-2-({4-[2-({5-[4-(trifluoromethoxy)phenyl]pyrimidin-2-yl}amino)ethyl]-1,3-thiazol-2-yl}thio)propionic acid]	21	65	31	48			
CC(C)(Sc1nc(CCOc2ccc(-c3ccc(F)cc3)cn2)cs1)C(=O)O [Example 100]	11.2	61	35	38			
CCCCCCCN(CCc1csc(SC(C)(C)C(=O)O)n1)c1ncc(N2CCOCC2)cn1 [Example 442, 2-[(4-{2-[heptyl(5-morpholin-4-ylpyrimidin-2-yl)amino]ethyl}-1,3-thiazol-2-yl)thio]-2-methylpropionic acid]	5.5	65	38	39			
CCCCCCCN(CCc1ccc(SC(C)(C)C(=O)O)cc1)C(=O)Nc1ccc(F)cc1F [GW-9578, reference compound]					50-60%	30-50%	30-50%
